Here are results for 2 compounds from patent publication US20150285760A1, “DIELECTROPHORETIC DEVICE FOR ANALYSIS OF CELL MECHANICS” (DREXEL UNIVERSITY, priority 2014, published 2015).

Entries after “also recorded” stand apart in the source; their conditions may differ.

Holding throughout (format): cell-based
For assay [1], the system named is porcine aortic endothelial cells. Put plainly: Atomic force microscopy cell stiffness (elastic modulus), cytochalasin D treatment. The note with it: 200 nM cytochalasin D for 15 minutes. As to the method:
(§1) Cells were released from tissue culture dishes with trypsin, seeded onto micropatterned PA gels, and 30 minutes was allowed for the cells to attach to the microspots 8. The medium was replaced and the PA gel was washed to remove unattached cells. Cells were then incubated on the micropatterned PA gels for 16-24 hours prior to taking measurements. Before the measurements, the cells were transferred into serum-free CO2-independent medium (Invitrogen™). In some samples, the actin cytoskeleton was disrupted with 200 nM cytochalasin D (Sigma Aldrich) for 15 minutes at room temperature in serum-free CO2-independent medium.
Atomic force microscopy (AFM, Bioscope DAFM-2X, Veeco) was used to validate DEP device 100 cell stiffness measurements (elastic modulus). A silicon nitride cantilever with 1 μm spherical tip (196 μm long, 23 μm wide, 600 nm thick, spring constant 0.06 N/m, Novascan) was used to indent each measured cell at three distinct locations. […] At least six cells for each cell condition or cell type were measured.
(§2) Adhered porcine aortic endothelial cells were treated with cytochalasin D to determine the stiffness changes induced by cytochalasin D using the DEP device 100 of the present invention. […] The calculated cell elastic modulus in cytochalasin treated cells was about 0.3 kPa, while the cell elastic modulus in the untreated cells was calculated to be about […] (FIG. 10C).

For assay [2] the test system is unchanged. Put plainly: DEP device cell deformation (centroid movement) of adhered cells. As to the method: as §1
A micropatterned single cell array adhered to a PA gel was mounted on an inverted Olympus IX81 fluorescent microscope. The quadrupole DEP device 100 was attached to a micromanipulator (Eppendorf), and the electrodes were centered and lowered over a single adhered cell within approximately ˜10 μm of the cell. Electrical potential was applied using a function generator (BK Precision 3011B) set to 20 Vpp, 1 MHz. The positive function generator lead was diverted into two separate lines, each going to a resistance decade box, before connecting to diagonally opposing device electrodes as in FIG. 2D. With no extra resistance applied, both electrodes received the same voltage. Increasing resistance to one electrode decreased voltage to that electrode and therefore changed the magnitude of the DEP force as well as the force direction. […]
Bright-field images were taken every 0.5 seconds throughout each measurement. […] Cell deformation was quantified by measuring the distance between cell body centroid and the lower left corner of the cropped image. […]
as §2

For another assay, the system named is Endothelial cells. Put plainly: Atomic force microscopy cell stiffness (elastic modulus) after TNF-α treatment. The note with it: cells on 55 kPa micropatterned PA gels. The text has this: Atomic force microscopy (AFM, Bioscope DAFM-2X, Veeco) was used to validate DEP device 100 cell stiffness measurements (elastic modulus). A silicon nitride cantilever with 1 μm spherical tip (196 μm long, 23 μm wide, 600 nm thick, spring constant 0.06 N/m, Novascan) was used to indent each measured cell at three distinct locations. Elastic modulus was estimated by fitting the first 200 nm of the indentation curves to a Hertz model (Solon et al., “Fibroblast adaptation and stiffness matching to soft elastic substrates,” Biophys. J., vol. […], pages 4453-4461, 2007). Three measurements per cell were averaged and defined as the cell stiffness. At least six cells for each cell condition or cell type were measured.
Endothelial cells were cultured for 24 hours on micropatterned PA gels with stiffness of 55 kPa using 25 μm fibronectin circles as the microspots 8 to allow focal adhesion formation. The micropatterned PA gel was used in a DEP device 100 of the present invention provided with a microfluidic chamber 14. The quadrupole electrodes 4 were lowered with a single cell aligned within the cage of each quadrupole electrode 4. TNF-α was introduced to the microfluidic chamber 14 to expose the cells thereto. Cell stiffness or cell elastic modulus of the endothelial cell after TNF-α treatment was measured using AFM.

As to `C=C1[C@@H](C)[C@H]2[C@H](Cc3ccccc3)NC(=O)[C@]23[C@H](OC(C)=O)/C=C/[C@@](C)(O)C(=O)[C@@H](C)C/C=C/[C@H]3[C@@H]1O` [cytochalasin D], in assay [1], the “calculated cell elastic modulus (AFM)” value is on record as “about 0.3 kPa” and the “cell stiffness / cell modulus (AFM), change compared with untreated cells” value is recorded as “decreased the stiffness; also recorded: lower”. In assay [2] (200 nM cytochalasin D for 15 minutes, compared with untreated adhered cells under the same DEP force), the “cell centroid movement / deformation under dielectrophoretic force” value is “Untreated endothelial cells showed centroid deformations consistently smaller than treated endothelia cells; also recorded: increased”. Further, in assay [2] (200 nM cytochalasin D for 15 minutes, compared with untreated cells), the “cell centroid restoration to the center position” value is listed as “slower”. For the same compound, the “cell stiffness (DEP device)” value in assay [2] (cytochalasin D treatment, three different DEP forces) is given as “decreases cell stiffness”.
For the compound TNF-α, in the assay on Endothelial cells, the “endothelial cell stiffness / elastic modulus (AFM), change compared with untreated cells” value is reported as “Increased; also recorded: higher”.
